# Read-outs that look alike come from different tables or passages of the source.
# Tests used:
# [1] = test system: P. aeruginosa PAO1 and efflux-defective PAO750; test: MIC, P. aeruginosa laboratory strains; format: cell-based; settings: Pseudomonas aeruginosa
# Method: (§1) Minimum inhibitory concentration (MIC) values were determined according to the Clinical Laboratory Standards Institute guidelines. Frequency of resistance was determined by plating ~5 × 10^8 bacterial cells on agar-solidified media plates containing test compound at concentrations corresponding to four times the measured solid-media MIC of the strains. Colonies were counted after 24 h, restreaked onto media containing the same concentration of compound, and the MIC remeasured against the assayed compound. Genomic DNA from isolated clones was sequenced by paired-end sequencing on an Illumina MiSeq device. Complete experimental details available in SI Appendix. […]
# Minimum inhibitory concentration (MIC) determination. Broth microdilution and agar dilution
# MIC assays were conducted according to CLSI guidelines (M07-2012). Appropriate inoculation
# suspension density was assessed using a Sensititre Nephelometer with a Sensititre 0.5
# (§2) McFarland Standard. […]
# [2] = test system: clinical E. coli isolates (n=111); test: MIC distribution and MIC90, clinical E. coli isolates; format: cell-based; settings: Escherichia coli; n=111, isolates from Spain, Poland, Denmark and Wales
# Method: as §1
# (§3) Minimum inhibitory concentration (MIC) determination. Broth microdilution and agar dilution MIC assays were conducted according to CLSI guidelines (M07-2012). Appropriate inoculation suspension density was assessed using a Sensititre Nephelometer with a Sensititre 0.5 […]
# as §2
# To determine the […]
# genotype of MDR strains from the ENABLE strain collection, de novo assembled contigs were analyzed using ResFinder (12–14) […]
# MIC distribution versus E. coli (n=111)
# Clinical Isolates from Spain, Poland, Denmark and Wales
# Figure S4. MIC distribution and MIC90 versus clinical E. coli isolates
# MIC distribution versus K. pneumoniae (n=104)
# Figure S5. MIC distribution and MIC90 versus clinical K. pneumoniae isolates […]
# [3] = test system: K. pneumoniae ATCC 13883 (EN0006) and selected mutants; test: MIC of mutants from frequency of resistance experiments; format: cell-based; settings: for MIC EN0006: ATCC 13883 parent; for MIC EN0006 / MIC CH10219: lpxH wild-type; for MIC CH10218: lpxH F128L; for MIC CH10218 / MIC CH10220 / MIC CH10221 / MIC CH10219: selected against EBL-3647; for MIC CH10206 / MIC CH10220: lpxH F141S; for MIC CH10206 / MIC CH10205 / MIC CH10207: selected against EBL-3599; for MIC CH10205 / MIC CH10207 / MIC CH10221: lpxH R80H; for MIC CH10219: ramR A40V
# Method: as §1, §3, §2
# Frequency of Resistance. Frequency of resistance was assessed by spread plating between […] cfu of a freshly-grown culture of the strain of interest on plates containing a concentration of compound corresponding to 4 times the MIC of the strain (as determined by agar-dilution MIC). Serial dilutions of the same cultures were plated on non-selective media to determine the number of cells plated. The frequency of resistance was determined by dividing the number of colonies obtained on the selective plates after 24 hours of growth by the calculated total population plated. Typically 4 independently grown cultures were used to initiate 4 separate experiments, and the total combined number of obtained colonies and plated populations were used for calculations. Isolated colonies from selection plates were re-streaked on an additional plate containing the same concentration of compound used in the original selection. Clones were saved at -80 °C for subsequent analysis.
# Whole-genome sequencing and data analysis. Genomic DNA of selected clones was prepared using an Epicentre MasterPure Complete DNA Purification Kit. Whole-genome sequencing libraries were prepared using an Illumina Nextera XT Library Preparation Kit. The libraries were sequenced using an Illumina MiSeq device with a V3 600-cycle reagent kit. Whole-genome sequencing data was analyzed using CLC Genomics Workbench Version 11. To determine the genotype of MDR strains from the ENABLE strain collection, de novo assembled contigs were […]
# Safety testing in mice = format: in vivo; settings: intravenous 50 mg/kg and subcutaneous 100 mg/kg
# Method: PK and safety studies were done the Latvian Institute for Organic Synthesis (Riga, Latvia) and in vivo efficacy studies were done at Statens Serum Institut (Copenhagen, Denmark). Assays were done in accordance with the relevant permits at the respective sites (SI Appendix). For PK studies, plasma samples were taken from mice dosed subcutaneously and the samples were analyzed by UPLC/MS/MS. For in vivo efficacy studies, neutropenic mice were infected intraperitoneally with 10^6 bacteria and treated with subcutaneously with test compounds 1 h after infection. The mice were euthanized 4 h after treatment and serially diluted samples of blood and peritoneal fluid were plated onto blood agar plates. Complete experimental details available in SI Appendix.
# Lantmännen) and water. […]
# Safety testing in mice. […] Mice were extensively observed and toxicity signs were scored after 0-2, 5, […]
# Plasma sample analysis by UPLC/MS/MS. Concentrations of EBL-3599 and EBL-3647 in mouse blood plasma were measured by liquid chromatography tandem mass spectrometry (LC/MS/MS) in positive electrospray ionization (ESI+) in multi reaction monitoring (MRM) mode. […]
# A sample volume of 20 μL was transferred into a plastic tube and mixed with 300μL acetonitrile/methanol mixture (3:1, v/v) to precipitate proteins. […] Bioanalysis of samples from each mouse were measured in duplicate and the results averaged. […]
# [4] = PAO1, read-out: MIC P. aeruginosa PAO1
# [5] = PAO1, read-out: MIC P. aeruginosa PAO750
Compound,"MIC [1, 4] [µg/mL]","MIC [1, 5] [µg/mL]",MIC90 [2] [µg/mL],MIC EN0006 [3] [µg/mL],MIC CH10218 [3] [µg/mL],MIC CH10206 [3] [µg/mL],MIC CH10220 [3] [µg/mL],MIC CH10205 [3] [µg/mL],MIC CH10207 [3] [µg/mL],MIC CH10221 [3] [µg/mL],MIC CH10219 [3] [µg/mL],Tolerability / adverse reactions in mice (Safety testing in mice)
Cc1cc(C#N)nc(N2CCN(S(=O)(=O)c3ccc(NC(=O)c4cc(CNCCCN)ccc4N(C)S(C)(=O)=O)cc3)CC2)n1.Cl.Cl [EBL-3599],> 64,64,4,1,64,> 64,> 64,32,32,> 64,8,well tolerated
Cc1cc(C#N)nc(N2CCN(S(=O)(=O)c3ccc(NC(=O)c4cc(CN5CC(CN)C5)ccc4N(C)S(C)(=O)=O)cc3)CC2)n1 [EBL-3647],> 64,64,4,1,32,> 64,> 64,32,32,> 64,8,well tolerated

# Reference: publication PMC11009625, “Antibiotic class with potent in vivo activity targeting lipopolysaccharide synthesis in Gram-negative bacteria” (Proceedings of the National Academy of Sciences of the …, 2024)
